Measured values: ChEMBL document CHEMBL3822374, “Anti-inflammatory polyphenol constituents derived from Cissus pteroclada Hayata” (Bioorg Med Chem Lett, 2016)

Assays:
[1] = test system: RAW264.7; test: Cytotoxicity against mouse RAW264.7 cells assessed as reduction in cell viability at 50 umol/L after 24 hrs by MTT assay; type: cell-based; conditions: raw264.7, 24 h, 50 µM
[2] = test system: RAW264.7; test: Cytotoxicity against LPS-stimulated mouse RAW264.7 cells assessed as reduction in cell viability at 50 umol/L after 24 hrs by MTT assay; type: cell-based; conditions: raw264.7, 24 h, 50 µM
[3] = test system: RAW264.7; test: Antiinflammatory activity against LPS-stimulated mouse RAW264.7 cells assessed as TNFalpha levels at 5 umol/L by ELISA (reference value: 183.21 +/- 5.36 pg/mL); type: functional
[4] = test system: RAW264.7; test: Antiinflammatory activity against LPS-stimulated mouse RAW264.7 cells assessed as TNFalpha levels at 25 umol/L by ELISA (reference value: 183.21 +/- 5.36 pg/mL); type: functional
[5] = test system: RAW264.7; test: Antiinflammatory activity against LPS-stimulated mouse RAW264.7 cells assessed as TNFalpha levels at 50 umol/L by ELISA (reference value: 183.21 +/- 5.36 pg/mL); type: functional
[6] = test system: RAW264.7; test: Antiinflammatory activity against LPS-stimulated mouse RAW264.7 cells assessed as IL1beta levels at 5 umol/L by ELISA (reference value: 8.70 +/- 0.365 pg/mL); type: functional
[7] = test system: RAW264.7; test: Antiinflammatory activity against LPS-stimulated mouse RAW264.7 cells assessed as IL1beta levels at 25 umol/L by ELISA (reference value: 8.70 +/- 0.365 pg/mL); type: functional
[8] = test system: RAW264.7; test: Antiinflammatory activity against LPS-stimulated mouse RAW264.7 cells assessed as IL1beta levels at 50 umol/L by ELISA (reference value: 8.70 +/- 0.365 pg/mL); type: functional
[9] = test system: RAW264.7; test: Antiinflammatory activity against LPS-stimulated mouse RAW264.7 cells assessed as PGE2 levels at 5 umol/L by ELISA (reference value: 33.2 +/- 2.33 pg/mL); type: functional
[10] = test system: RAW264.7; test: Antiinflammatory activity against LPS-stimulated mouse RAW264.7 cells assessed as PGE2 levels at 25 umol/L by ELISA (reference value: 33.2 +/- 2.33 pg/mL); type: functional
[11] = test system: RAW264.7; test: Antiinflammatory activity against LPS-stimulated mouse RAW264.7 cells assessed as PGE2 levels at 50 umol/L by ELISA (reference value: 33.2 +/- 2.33 pg/mL); type: functional
[12] = test system: RAW264.7; test: Antiinflammatory activity against LPS-stimulated mouse RAW264.7 cells assessed as NO levels at 5 umol/L by ELISA (reference value: 0.95 +/- 0.052 umol/mL); type: functional
[13] = test system: RAW264.7; test: Antiinflammatory activity against LPS-stimulated mouse RAW264.7 cells assessed as NO levels at 25 umol/L by ELISA (reference value: 0.95 +/- 0.052 umol/mL); type: functional
[14] = test system: RAW264.7; test: Antiinflammatory activity against LPS-stimulated mouse RAW264.7 cells assessed as NO levels at 50 umol/L by ELISA (reference value: 0.95 +/- 0.052 umol/mL); type: functional
[15] = test system: RAW264.7; test: Antiinflammatory activity against LPS-stimulated mouse RAW264.7 cells assessed as iNOS levels at 5 umol/L by ELISA (reference value: 31.63 +/- 3.26 U/mL); type: functional
[16] = test system: RAW264.7; test: Antiinflammatory activity against LPS-stimulated mouse RAW264.7 cells assessed as iNOS levels at 25 umol/L by ELISA (reference value: 31.63 +/- 3.26 U/mL); type: functional
[17] = test system: RAW264.7; test: Antiinflammatory activity against LPS-stimulated mouse RAW264.7 cells assessed as iNOS levels at 50 umol/L by ELISA (reference value: 31.63 +/- 3.26 U/mL); type: functional
[18] = Inhibition of NFkappaB signaling pathway in LPS-stimulated mouse RAW264.7 cells assessed as protein levels at 5 umol/L by ELISA (reference value: 1.23 +/- 0.06 pg/mL); type: cell-based
[19] = Inhibition of NFkappaB signaling pathway in LPS-stimulated mouse RAW264.7 cells assessed as protein levels at 25 umol/L by ELISA (reference value: 1.23 +/- 0.06 pg/mL); type: cell-based
[20] = Inhibition of NFkappaB signaling pathway in LPS-stimulated mouse RAW264.7 cells assessed as protein levels at 50umol/L by ELISA (reference value: 1.23 +/- 0.06 pg/mL); type: cell-based
[21] = test system: RAW264.7; test: Antiinflammatory activity against LPS-stimulated mouse RAW264.7 cells assessed as COX2 levels at 5 umol/L by ELISA (reference value: 159.64 +/- 13.56 pg/mL); type: functional
[22] = test system: RAW264.7; test: Antiinflammatory activity against LPS-stimulated mouse RAW264.7 cells assessed as COX2 levels at 25 umol/L by ELISA (reference value: 159.64 +/- 13.56 pg/mL); type: functional
[23] = test system: RAW264.7; test: Antiinflammatory activity against LPS-stimulated mouse RAW264.7 cells assessed as COX2 levels at 50 umol/L by ELISA (reference value: 159.64 +/- 13.56 pg/mL); type: functional
[24] = test system: RAW264.7; test: Antiinflammatory activity against LPS-stimulated mouse RAW264.7 cells assessed as downregulation of iNOS levels by ELISA; type: functional, cell-based
[25] = Inhibition of NFkappaB signaling pathway in LPS-stimulated mouse RAW264.7 cells by ELISA; type: cell-based
[26] = test system: RAW264.7; test: Antiinflammatory activity against LPS-stimulated mouse RAW264.7 cells assessed as downregulation of COX2 levels by ELISA; type: functional, cell-based
[27] = test system: RAW264.7; test: Antiinflammatory activity against LPS-stimulated mouse RAW264.7 cells assessed as downregulation of NO levels by ELISA; type: functional, cell-based
[28] = test system: RAW264.7; test: Antiinflammatory activity against LPS-stimulated mouse RAW264.7 cells assessed as downregulation of PGE2 levels by ELISA; type: functional, cell-based

SMILES | Activity [1] | Activity [2] | Activity [3] | Activity [4] | Activity [5] | Activity [6] | Activity [7] | Activity [8] | Activity [9] | Activity [10] | Activity [11] | Activity [12] | Activity [13] | Activity [14] | Activity [15] | Activity [24] | inhibition [25] | Activity [26] | Activity [27] | Activity [28] | also measured
O=c1c(O)cccc2cc(O)c(O)c(O)c12 [PURPUROGALLIN] | Non-toxic | Non-toxic | 52.85 pg/mL | 44.36 pg/mL | 42.44 pg/mL | 6.7 pg/mL | 2.95 pg/mL | 2.88 pg/mL | 28.76 pg/mL | 28.11 pg/mL | 27.57 pg/mL | 0.59 µmol/mL | 0.42 µmol/mL | 0.21 µmol/mL | 31.37 U/ml |  |  |  |  |  | Activity [16]: 22.15 U/ml; Activity [17]: 21.64 U/ml; Activity [18]: 0.32 pg/mL; Activity [19]: 0.086 pg/mL; Activity [20]: 0.053 pg/mL; Activity [21]: 120.78 pg/mL; Activity [22]: 67.73 pg/mL; Activity [23]: 67.23 pg/mL
O=C1O[C@@H]2[C@@H](O)[C@H](O)[C@@H](CO)O[C@H]2c2c1cc(O)c(O)c2O | Non-toxic | Non-toxic |  |  |  |  |  |  |  |  |  |  |  |  |  | Dose-dependent effect | Dose-dependent effect | Dose-dependent effect | Dose-dependent effect | Dose-dependent effect | 
COc1c(O)cc2c(c1O)[C@@H]1O[C@H](CO)[C@@H](O)[C@H](O)[C@H]1OC2=O [BERGENIN] | Non-toxic | Non-toxic |  |  |  |  |  |  |  |  |  |  |  |  |  | Dose-dependent effect | Dose-dependent effect | Dose-dependent effect | Dose-dependent effect | Dose-dependent effect | 
O=C(O)c1cc(O)c(O)c(O)c1 [GALLIC ACID] | Non-toxic | Non-toxic | 103.08 pg/mL | 80.77 pg/mL | 62.59 pg/mL | 4.33 pg/mL | 4.17 pg/mL | 4.13 pg/mL | 33.06 pg/mL | 32.74 pg/mL | 30.26 pg/mL | 0.88 µmol/mL | 0.39 µmol/mL | 0.031 µmol/mL | 35.29 U/ml |  |  |  |  |  | Activity [16]: 29.76 U/ml; Activity [17]: 20.57 U/ml; Activity [18]: 0.76 pg/mL; Activity [19]: 0.14 pg/mL; Activity [20]: 0.07 pg/mL; Activity [21]: 183.21 pg/mL; Activity [22]: 149.16 pg/mL; Activity [23]: 122.67 pg/mL
COc1c(O)cc2c(c1O)[C@@H]1O[C@H](COC(=O)c3cc(O)c(O)c(O)c3)[C@@H](O)[C@H](O)[C@H]1OC2=O | Non-toxic | Non-toxic |  |  |  |  |  |  |  |  |  |  |  |  |  | Dose-dependent effect | Dose-dependent effect | Dose-dependent effect | Dose-dependent effect | Dose-dependent effect | 
